This passage reports Ki results from ChEMBL document CHEMBL3638962, “Heteroarylcarboxylic acid ester derivative” (2013).

This assay deals with Enteropeptidase (Homo sapiens, UniProt P98073). As to the kind of experiment: Inhibition Assay: Inhibition assay using human enteropeptidase.

For orientation: Ki means a dissociation constant, usually derived from enzyme kinetics or from competition with a known ligand. Lower therefore signals tighter binding.

Sequence of Enteropeptidase (P98073 2-784 limits assumed): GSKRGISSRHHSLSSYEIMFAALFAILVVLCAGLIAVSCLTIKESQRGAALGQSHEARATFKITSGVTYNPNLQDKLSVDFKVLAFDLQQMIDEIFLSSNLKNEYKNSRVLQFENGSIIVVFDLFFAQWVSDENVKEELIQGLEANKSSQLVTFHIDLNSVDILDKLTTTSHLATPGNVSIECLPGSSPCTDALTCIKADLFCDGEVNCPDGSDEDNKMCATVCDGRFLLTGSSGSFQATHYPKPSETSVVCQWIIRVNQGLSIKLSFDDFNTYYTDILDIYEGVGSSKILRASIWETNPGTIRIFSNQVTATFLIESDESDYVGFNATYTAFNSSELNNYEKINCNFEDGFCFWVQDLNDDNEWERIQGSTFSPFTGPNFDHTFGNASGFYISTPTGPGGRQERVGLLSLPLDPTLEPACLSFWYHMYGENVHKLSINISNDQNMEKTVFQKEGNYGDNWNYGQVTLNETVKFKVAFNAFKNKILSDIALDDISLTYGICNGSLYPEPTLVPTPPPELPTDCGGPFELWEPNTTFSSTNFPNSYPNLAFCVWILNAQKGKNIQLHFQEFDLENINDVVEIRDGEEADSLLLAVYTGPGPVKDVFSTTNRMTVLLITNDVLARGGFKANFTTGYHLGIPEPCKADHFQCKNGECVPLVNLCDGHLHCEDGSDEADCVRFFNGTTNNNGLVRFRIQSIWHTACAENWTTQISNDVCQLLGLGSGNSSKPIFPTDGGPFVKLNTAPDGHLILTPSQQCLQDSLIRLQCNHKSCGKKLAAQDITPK
Sequence of Enteropeptidase (P98073 785-1019 limits assumed): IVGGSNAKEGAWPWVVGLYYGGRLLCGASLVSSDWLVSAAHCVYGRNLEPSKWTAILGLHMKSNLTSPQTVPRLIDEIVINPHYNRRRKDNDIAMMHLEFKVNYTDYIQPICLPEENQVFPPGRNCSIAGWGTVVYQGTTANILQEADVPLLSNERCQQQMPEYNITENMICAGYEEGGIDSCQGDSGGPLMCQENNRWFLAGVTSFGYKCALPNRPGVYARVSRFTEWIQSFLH

As to `N=C(N)c1ccc(OC(=O)c2ccc(CCC(=O)N(CCC(=O)O)CC(=O)O)o2)cc1`, the affinity corresponds to a Ki of 0.6 nM. To `CC(Cc1ccc(C(=O)Oc2ccc(C(=N)N)cc2)o1)C(=O)O[C@H](CC(=O)O)C(=O)O` (stereo partly drawn) belongs 0.68 nM; to `CC(Cc1ncc(C(=O)Oc2ccc(C(=N)N)cc2F)s1)C(=O)N[C@@H](CC(=O)O)C(=O)O` (stereo partly drawn), 3.7 nM.
